In patent US20230265151A1, “GIP/GLP1 CO-AGONIST COMPOUNDS” (priority 2020, published 2023):
Where two headings read alike, the source gives them in different places. *1 amine or outer side, *2 acyl side, *3 side chain or, on linkers, in order; H or OH if unused. Where a SMILES comes first, the peptide text is derived from it. Side-chain parts run from the residue outwards. [ ]: non-standard residue; d: D form. The star is where a group is joined. αMePhe(2-F) = C[C@](N)(Cc1ccccc1F)C(=O)O; γGlu = O=C(O)[C@H](CCC(=O)[*:2])N[*:1]; C14 diacid = O=C(O)CCCCCCCCCCCCC(=O)*; αMeY = C[C@](N)(Cc1ccc(O)cc1)C(=O)O; αMeL = CC(C)C[C@](C)(N)C(=O)O; Orn = NCCC[C@H](N)C(=O)O; AEEA = NCCOCCOCC(=O)O; Aib = CC(C)(N)C(=O)O

How the values were obtained:
Type in all cases: cell-based
[1] = biological target: hGLP-1R (Homo sapiens, UniProt P43220); experiment: Functional cAMP formation (HTRF) in HEK-293 clonal cells expressing hGLP-1R, 0.1% bovine casein, without or with 1.0% human serum albumin; parameters: expressed in transfected cells; details: 37° C.; for EC50: cAMP, 0.1% bovine casein (no human serum albumin), geometric mean; for Emax: HEK293, cAMP, 0.1% bovine casein, percent of maximal response to GLP-1(7-36)NH2, arithmetic mean, read-out: hGLP-1R Emax, % ± SEM
Chain of hGLP-1R (P43220 24-463): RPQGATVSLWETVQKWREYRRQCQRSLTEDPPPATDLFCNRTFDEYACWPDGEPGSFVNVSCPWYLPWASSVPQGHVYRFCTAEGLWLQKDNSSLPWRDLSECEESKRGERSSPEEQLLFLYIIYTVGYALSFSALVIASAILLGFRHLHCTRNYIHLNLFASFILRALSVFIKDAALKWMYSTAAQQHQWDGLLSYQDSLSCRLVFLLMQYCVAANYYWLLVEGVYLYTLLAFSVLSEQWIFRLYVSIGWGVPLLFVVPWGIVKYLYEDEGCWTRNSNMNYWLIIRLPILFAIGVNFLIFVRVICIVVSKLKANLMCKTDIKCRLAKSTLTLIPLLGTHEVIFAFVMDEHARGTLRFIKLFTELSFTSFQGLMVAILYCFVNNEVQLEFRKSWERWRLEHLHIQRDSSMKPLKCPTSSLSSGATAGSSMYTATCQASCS
Outline: (§1)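 Cells were stimulated with peptide for 30 min at 37° C, then lysed in buffer carrying cAMP-d2 and anti-cAMP Eu3+-cryptate for a competitive HTRF read after at least 60 min at room temperature. The 665/620 nm ratio was converted to nM cAMP against a standard curve.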

[2] = biological target: T1, hGIPR (Homo sapiens, UniProt P48546); experiment: Functional cAMP formation (HTRF) in HEK-293 clonal cells expressing hGIPR, 0.1% bovine casein, without or with 1.0% human serum albumin; details: for Emax: percent of maximal response to GIP(1-42)NH2; for EC50: cAMP, 0.1% bovine casein (no human serum albumin), geometric mean
T1 construct: expressed in transfected cells
T1 sequence (P48546 22-466): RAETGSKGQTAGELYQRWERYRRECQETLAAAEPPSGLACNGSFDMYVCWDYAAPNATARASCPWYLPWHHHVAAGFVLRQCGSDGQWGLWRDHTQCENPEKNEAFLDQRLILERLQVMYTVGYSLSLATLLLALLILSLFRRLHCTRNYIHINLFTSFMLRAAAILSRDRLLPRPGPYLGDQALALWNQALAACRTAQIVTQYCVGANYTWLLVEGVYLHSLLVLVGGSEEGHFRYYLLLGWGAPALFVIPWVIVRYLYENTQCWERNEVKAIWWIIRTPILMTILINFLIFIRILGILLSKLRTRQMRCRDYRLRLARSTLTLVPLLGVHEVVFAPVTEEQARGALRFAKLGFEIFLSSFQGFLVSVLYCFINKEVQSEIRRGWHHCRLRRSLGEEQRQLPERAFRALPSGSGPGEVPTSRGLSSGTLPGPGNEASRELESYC
Outline: as §1

[3] = biological target: T2, hGCGR (Homo sapiens, UniProt P47871); experiment: Functional cAMP formation (HTRF) in HEK-293 clonal cells expressing hGCGR, 0.1% bovine casein, without or with 1.0% human serum albumin; details: cAMP, 37° C.
T2 construct: expressed in transfected cells
T2 sequence (P47871 26-477): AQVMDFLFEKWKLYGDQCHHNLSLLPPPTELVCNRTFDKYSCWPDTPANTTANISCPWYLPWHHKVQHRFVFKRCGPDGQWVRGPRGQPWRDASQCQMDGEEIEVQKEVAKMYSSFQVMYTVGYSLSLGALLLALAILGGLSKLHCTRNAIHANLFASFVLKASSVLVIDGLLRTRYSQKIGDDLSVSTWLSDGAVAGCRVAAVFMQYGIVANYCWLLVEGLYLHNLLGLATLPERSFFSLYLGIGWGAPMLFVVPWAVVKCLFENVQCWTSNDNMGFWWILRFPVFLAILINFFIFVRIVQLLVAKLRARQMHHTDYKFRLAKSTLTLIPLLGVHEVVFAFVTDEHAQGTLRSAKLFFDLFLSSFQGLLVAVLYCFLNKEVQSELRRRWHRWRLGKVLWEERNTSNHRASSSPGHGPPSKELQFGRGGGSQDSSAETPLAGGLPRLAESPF
Outline: as §1

[4] = read-out: hGLP-1R EC50, nM (SEM, n)
[5] = HEK293, cAMP, 37° C., 0.1% bovine casein, arithmetic mean, read-out: hGIPR Emax, % ± SEM
[6] = 37° C., read-out: hGIPR EC50, nM (SEM, n)
[7] = 0.1% bovine casein (no human serum albumin), geometric mean, read-out: hGCGR EC50, nM (SEM, n)

Compound	EC50 [1, 4] [nM]	Emax [2, 5] [%]	EC50 [2, 6] [nM]	EC50 [3, 7] [nM]	Emax [1] [%]	EC50 ([1]; hGLP-1R EC50, nM (SEM, n)) [nM]	Emax ([2]; HEK293, read-out: hGIPR Emax, % ± SEM, cAMP, 37° C., 0.1% bovine casein and 1.0% human serum albumin) [%]	Emax ([2]; HEK293, read-out: hGIPR Emax, % ± SEM, cAMP, 37° C., 0.1% bovine casein, arithmetic mean) [%]	EC50 ([2]; hGIPR EC50, nM (SEM, n), 37° C.) [nM]	EC50 ([3]; hGCGR EC50, nM (SEM, n), 0.1% bovine casein (no human serum albumin), geometric mean) [nM]	EC50 ([3]; hGCGR EC50, nM (SEM, n), 0.1% bovine casein and 1.0% human serum albumin, geometric mean (SEM, n)) [nM]
CC[C@H](C)[C@H](NC(=O)[C@H](CC(C)C)NC(=O)[C@](C)(Cc1ccc(O)cc1)NC(=O)[C@@H](CCC(=O)O)NC(=O)[C@@H](NC(=O)[C@H](Cc1ccccc1)NC(=O)[C@H](CCC(=O)O)NC(=O)C(C)(C)NC(=O)[C@H](CCC(N)=O)NC(=O)[C@H](C)NC(=O)[C@H](CCCCNC(=O)COCCOCCNC(=O)CC[C@H](NC(=O)CCCCCCCCCCCCC(=O)O)C(=O)O)NC(=O)[C@H](CCCN)NC(=O)[C@H](CC(=O)O)NC(=O)[C@H](CC(C)C)NC(=O)[C@](C)(CC(C)C)NC(=O)[C@@H](NC(=O)C(C)(C)NC(=O)[C@H](Cc1ccc(O)cc1)NC(=O)[C@H](CC(=O)O)NC(=O)[C@H](CO)NC(=O)[C@@H](NC(=O)[C@](C)(Cc1ccccc1F)NC(=O)[C@@H](NC(=O)CNC(=O)[C@H](CCC(=O)O)NC(=O)C(C)(C)NC(=O)[C@@H](N)Cc1ccc(O)cc1)[C@@H](C)O)[C@@H](C)O)[C@@H](C)CC)[C@@H](C)CC)C(=O)N[C@@H](CCC(=O)O)C(=O)NCC(=O)NCC(=O)N1CCC[C@H]1C(=O)N[C@@H](CO)C(=O)N[C@@H](CO)C(=O)NCC(=O)N[C@@H](C)C(=O)N1CCC[C@H]1C(=O)N1CCC[C@H]1C(=O)N1CCC[C@H]1C(=O)N[C@@H](CO)C(=O)N[C@@H](CCCCNC(=O)COCCOCCNC(=O)CC[C@H](NC(=O)CCCCCCCCCCCCC(=O)O)C(=O)O)C(N)=O [Example 368]	0.411	105	0.0271	> 9950							
CC[C@H](C)[C@H](NC(=O)[C@H](CCCN)NC(=O)[C@H](CC(=O)O)NC(=O)[C@H](CC(C)C)NC(=O)[C@](C)(CC(C)C)NC(=O)[C@@H](NC(=O)C(C)(C)NC(=O)[C@H](Cc1ccc(O)cc1)NC(=O)[C@H](CC(=O)O)NC(=O)[C@H](CO)NC(=O)[C@@H](NC(=O)[C@](C)(Cc1ccccc1F)NC(=O)[C@@H](NC(=O)CNC(=O)[C@H](CCC(=O)O)NC(=O)C(C)(C)NC(=O)[C@@H](N)Cc1ccc(O)cc1)[C@@H](C)O)[C@@H](C)O)[C@@H](C)CC)C(=O)N[C@@H](C)C(=O)N[C@@H](CCC(N)=O)C(=O)NC(C)(C)C(=O)N[C@@H](CCC(=O)O)C(=O)N[C@@H](Cc1ccccc1)C(=O)N[C@H](C(=O)N[C@@H](CCCCNC(=O)COCCOCCNC(=O)CC[C@H](NC(=O)CCCCCCCCCCCCC(=O)O)C(=O)O)C(=O)N[C@@](C)(Cc1ccc(O)cc1)C(=O)N[C@@H](CC(C)C)C(=O)N[C@H](C(=O)N[C@@H](CCCCNC(=O)COCCOCCNC(=O)CC[C@H](NC(=O)CCCCCCCCCCCCC(=O)O)C(=O)O)C(=O)NCC(=O)NCC(=O)N1CCC[C@H]1C(=O)N[C@@H](CO)C(=O)N[C@@H](CO)C(=O)NCC(=O)N[C@@H](C)C(=O)N1CCC[C@H]1C(=O)N1CCC[C@H]1C(=O)N1CCC[C@H]1C(=O)N[C@@H](CO)C(N)=O)[C@@H](C)CC)[C@@H](C)CC [Example 369]	0.555		0.037	> 9950							
CC[C@H](C)[C@H](NC(=O)[C@H](CCCN)NC(=O)[C@H](CC(=O)O)NC(=O)[C@H](CC(C)C)NC(=O)[C@](C)(CC(C)C)NC(=O)[C@@H](NC(=O)C(C)(C)NC(=O)[C@H](Cc1ccc(O)cc1)NC(=O)[C@H](CC(=O)O)NC(=O)[C@H](CO)NC(=O)[C@@H](NC(=O)[C@](C)(Cc1ccccc1F)NC(=O)[C@@H](NC(=O)CNC(=O)[C@H](CCC(=O)O)NC(=O)C(C)(C)NC(=O)[C@@H](N)Cc1ccc(O)cc1)[C@@H](C)O)[C@@H](C)O)[C@@H](C)CC)C(=O)N[C@@H](C)C(=O)N[C@@H](CCC(N)=O)C(=O)NC(C)(C)C(=O)N[C@@H](CCCCNC(=O)COCCOCCNC(=O)CC[C@H](NC(=O)CCCCCCCCCCCCC(=O)O)C(=O)O)C(=O)N[C@@H](Cc1ccccc1)C(=O)N[C@H](C(=O)N[C@H](CCC(=O)O)C(=O)N[C@@](C)(Cc1ccc(O)cc1)C(=O)N[C@@H](CC(C)C)C(=O)N[C@H](C(=O)N[C@@H](CCCCNC(=O)COCCOCCNC(=O)CC[C@H](NC(=O)CCCCCCCCCCCCC(=O)O)C(=O)O)C(=O)NCC(=O)NCC(=O)N1CCC[C@H]1C(=O)N[C@@H](CO)C(=O)N[C@@H](CO)C(=O)NCC(=O)N[C@@H](C)C(=O)N1CCC[C@H]1C(=O)N1CCC[C@H]1C(=O)N1CCC[C@H]1C(=O)N[C@@H](CO)C(N)=O)[C@@H](C)CC)[C@@H](C)CC [Example 370] (H-Y[Aib]EGT[αMePhe(2-F)]TSDY[Aib]I[αMeL]LD[Orn]IAQ[Aib]K([AEEA-γGlu-C14 diacid])FI[dE][αMeY]LIK([AEEA-γGlu-C14 diacid])GGPSSGAPPPS-NH2)	0.402	105	0.0282	> 9950	112						
CC[C@H](C)[C@H](NC(=O)[C@H](CCCN)NC(=O)[C@H](CC(=O)O)NC(=O)[C@H](CC(C)C)NC(=O)[C@](C)(CC(C)C)NC(=O)[C@@H](NC(=O)C(C)(C)NC(=O)[C@H](Cc1ccc(O)cc1)NC(=O)[C@H](CC(=O)O)NC(=O)[C@H](CO)NC(=O)[C@@H](NC(=O)[C@](C)(Cc1ccccc1F)NC(=O)[C@@H](NC(=O)CNC(=O)[C@H](CCC(=O)O)NC(=O)C(C)(C)NC(=O)[C@@H](N)Cc1ccc(O)cc1)[C@@H](C)O)[C@@H](C)O)[C@@H](C)CC)C(=O)N[C@@H](C)C(=O)N[C@@H](CCC(N)=O)C(=O)NC(C)(C)C(=O)N[C@@H](CCCCNC(=O)COCCOCCNC(=O)CC[C@H](NC(=O)CCCCCCCCCCCCC(=O)O)C(=O)O)C(=O)N[C@@H](Cc1ccccc1)C(=O)N[C@H](C(=O)N[C@H](CCC(=O)O)C(=O)N[C@@](C)(Cc1ccc(O)cc1)C(=O)N[C@@H](CC(C)C)C(=O)N[C@H](C(=O)N[C@@H](CCC(=O)O)C(=O)NCC(=O)NCC(=O)N1CCC[C@H]1C(=O)N[C@@H](CO)C(=O)N[C@@H](CO)C(=O)NCC(=O)N[C@@H](C)C(=O)N1CCC[C@H]1C(=O)N1CCC[C@H]1C(=O)N1CCC[C@H]1C(=O)N[C@@H](CO)C(=O)N[C@@H](CCCCNC(=O)COCCOCCNC(=O)CC[C@H](NC(=O)CCCCCCCCCCCCC(=O)O)C(=O)O)C(N)=O)[C@@H](C)CC)[C@@H](C)CC [Example 371] (H-Y[Aib]EGT[αMePhe(2-F)]TSDY[Aib]I[αMeL]LD[Orn]IAQ[Aib]K([AEEA-γGlu-C14 diacid])FI[dE][αMeY]LIEGGPSSGAPPPSK([AEEA-γGlu-C14 diacid])-NH2)	0.363		0.0209	> 9950	112						
CC[C@H](C)[C@H](NC(=O)[C@H](CC(C)C)NC(=O)[C@](C)(Cc1ccc(O)cc1)NC(=O)[C@@H](CCC(=O)O)NC(=O)[C@@H](NC(=O)[C@H](Cc1ccccc1)NC(=O)[C@H](CCCCNC(=O)COCCOCCNC(=O)CC[C@H](NC(=O)CCCCCCCCCOc1ccc(C(=O)O)cc1)C(=O)O)NC(=O)C(C)(C)NC(=O)[C@H](CCC(N)=O)NC(=O)[C@H](C)NC(=O)[C@H](CCCCNC(=O)COCCOCCNC(=O)CC[C@H](NC(=O)CCCCCCCCCOc1ccc(C(=O)O)cc1)C(=O)O)NC(=O)[C@H](CCCN)NC(=O)[C@H](CC(=O)O)NC(=O)[C@H](CC(C)C)NC(=O)[C@](C)(CC(C)C)NC(=O)[C@@H](NC(=O)C(C)(C)NC(=O)[C@H](Cc1ccc(O)cc1)NC(=O)[C@H](CC(=O)O)NC(=O)[C@H](CO)NC(=O)[C@@H](NC(=O)[C@](C)(Cc1ccccc1F)NC(=O)[C@@H](NC(=O)CNC(=O)[C@H](CCC(=O)O)NC(=O)C(C)(C)NC(=O)[C@@H](N)Cc1ccc(O)cc1)[C@@H](C)O)[C@@H](C)O)[C@@H](C)CC)[C@@H](C)CC)C(=O)N[C@@H](CCC(=O)O)C(=O)NCC(=O)NCC(=O)N1CCC[C@H]1C(=O)N[C@@H](CO)C(=O)N[C@@H](CO)C(=O)NCC(=O)N[C@@H](C)C(=O)N1CCC[C@H]1C(=O)N1CCC[C@H]1C(=O)N1CCC[C@H]1C(=O)N[C@@H](CO)C(N)=O [Example 372]						0.291	90.6	97.3	0.0112	> 9950	> 9950
